Laboratory results as given in US11007270B2, “Polymer-semaxanib moiety conjugates” (Nektar Therapeutics, priority 2010, dated 2021).
Several values for one entry are separate records, joined by “and”; a condition that tells them apart may be missing. Equal entries are not always repeated. Where two headings read alike, the source gives them in different places. Values belong to the compound of their own block, whether it stands above or below them.

Assays:
c-Kit = c-Kit (Homo sapiens, UniProt P10721); test: c-Kit tyrosine kinase inhibition, Caliper screening (fluorescent substrate phosphorylation, electrophoretic separation); assay type: biochemical; settings: for IC50: averages of replicate wells; for c-Kit Fold: fold of IC50 relative to sunitinib
RET = RET (Homo sapiens, UniProt P07949); test: RET kinase inhibition, Caliper screening (fluorescent substrate phosphorylation, electrophoretic separation); settings: for RET Fold: fold of IC50 relative to sunitinib
VEGFR-2 = VEGFR-2 (Homo sapiens, UniProt P35968); test: VEGFR-2 kinase inhibition, Caliper screening (fluorescent substrate phosphorylation, electrophoretic separation); settings: for VEGFR-2 Fold: fold of IC50 relative to sunitinib
[1] = concentration 1.0E−05 (unit not given)
[2] = concentration 1.0E−06 (unit not given)
[3] = concentration 1.0E−07 (unit not given)
[4] = concentration 1.0E−08 (unit not given)
[5] = concentration 1.0E−09 (unit not given)
[6] = concentration 1.0E−10 (unit not given)
[7] = concentration 3.0E−05 (unit not given)
[8] = concentration 3.0E−06 (unit not given)
[9] = concentration 3.0E−07 (unit not given)
[10] = concentration 3.0E−08 (unit not given)
[11] = concentration 3.0E−09 (unit not given)
[12] = concentration 3.0E−10 (unit not given)

Sequence of RET (P07949 29-1114, species assumed): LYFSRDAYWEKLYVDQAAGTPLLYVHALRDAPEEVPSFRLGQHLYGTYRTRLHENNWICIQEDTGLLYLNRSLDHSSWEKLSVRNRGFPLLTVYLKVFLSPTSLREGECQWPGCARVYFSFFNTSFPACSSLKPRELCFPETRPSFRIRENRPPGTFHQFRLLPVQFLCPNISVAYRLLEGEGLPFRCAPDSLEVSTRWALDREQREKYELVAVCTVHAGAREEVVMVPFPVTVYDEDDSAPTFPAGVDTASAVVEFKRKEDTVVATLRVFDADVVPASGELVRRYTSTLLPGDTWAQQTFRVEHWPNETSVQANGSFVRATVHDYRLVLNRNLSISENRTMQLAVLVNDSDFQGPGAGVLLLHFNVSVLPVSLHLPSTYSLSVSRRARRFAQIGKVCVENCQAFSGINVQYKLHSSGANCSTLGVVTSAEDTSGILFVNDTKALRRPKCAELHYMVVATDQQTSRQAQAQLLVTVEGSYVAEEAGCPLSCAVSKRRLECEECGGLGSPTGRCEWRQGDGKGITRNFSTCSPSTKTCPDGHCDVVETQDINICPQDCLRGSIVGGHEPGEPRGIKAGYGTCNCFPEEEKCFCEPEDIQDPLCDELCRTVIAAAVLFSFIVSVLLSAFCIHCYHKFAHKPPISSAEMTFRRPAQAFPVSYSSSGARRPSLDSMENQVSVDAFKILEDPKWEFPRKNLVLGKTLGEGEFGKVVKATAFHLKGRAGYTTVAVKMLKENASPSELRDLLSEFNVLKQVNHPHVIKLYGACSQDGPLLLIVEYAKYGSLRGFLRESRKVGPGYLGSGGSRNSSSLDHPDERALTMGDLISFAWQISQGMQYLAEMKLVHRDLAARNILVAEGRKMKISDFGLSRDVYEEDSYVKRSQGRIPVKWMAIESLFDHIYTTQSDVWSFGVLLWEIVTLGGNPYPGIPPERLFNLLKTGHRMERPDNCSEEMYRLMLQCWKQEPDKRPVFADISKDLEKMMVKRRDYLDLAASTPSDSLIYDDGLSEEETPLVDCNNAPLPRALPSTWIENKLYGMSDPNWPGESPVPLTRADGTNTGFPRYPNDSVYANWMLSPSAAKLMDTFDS
Sequence of VEGFR-2 (P35968 20-1356, species assumed): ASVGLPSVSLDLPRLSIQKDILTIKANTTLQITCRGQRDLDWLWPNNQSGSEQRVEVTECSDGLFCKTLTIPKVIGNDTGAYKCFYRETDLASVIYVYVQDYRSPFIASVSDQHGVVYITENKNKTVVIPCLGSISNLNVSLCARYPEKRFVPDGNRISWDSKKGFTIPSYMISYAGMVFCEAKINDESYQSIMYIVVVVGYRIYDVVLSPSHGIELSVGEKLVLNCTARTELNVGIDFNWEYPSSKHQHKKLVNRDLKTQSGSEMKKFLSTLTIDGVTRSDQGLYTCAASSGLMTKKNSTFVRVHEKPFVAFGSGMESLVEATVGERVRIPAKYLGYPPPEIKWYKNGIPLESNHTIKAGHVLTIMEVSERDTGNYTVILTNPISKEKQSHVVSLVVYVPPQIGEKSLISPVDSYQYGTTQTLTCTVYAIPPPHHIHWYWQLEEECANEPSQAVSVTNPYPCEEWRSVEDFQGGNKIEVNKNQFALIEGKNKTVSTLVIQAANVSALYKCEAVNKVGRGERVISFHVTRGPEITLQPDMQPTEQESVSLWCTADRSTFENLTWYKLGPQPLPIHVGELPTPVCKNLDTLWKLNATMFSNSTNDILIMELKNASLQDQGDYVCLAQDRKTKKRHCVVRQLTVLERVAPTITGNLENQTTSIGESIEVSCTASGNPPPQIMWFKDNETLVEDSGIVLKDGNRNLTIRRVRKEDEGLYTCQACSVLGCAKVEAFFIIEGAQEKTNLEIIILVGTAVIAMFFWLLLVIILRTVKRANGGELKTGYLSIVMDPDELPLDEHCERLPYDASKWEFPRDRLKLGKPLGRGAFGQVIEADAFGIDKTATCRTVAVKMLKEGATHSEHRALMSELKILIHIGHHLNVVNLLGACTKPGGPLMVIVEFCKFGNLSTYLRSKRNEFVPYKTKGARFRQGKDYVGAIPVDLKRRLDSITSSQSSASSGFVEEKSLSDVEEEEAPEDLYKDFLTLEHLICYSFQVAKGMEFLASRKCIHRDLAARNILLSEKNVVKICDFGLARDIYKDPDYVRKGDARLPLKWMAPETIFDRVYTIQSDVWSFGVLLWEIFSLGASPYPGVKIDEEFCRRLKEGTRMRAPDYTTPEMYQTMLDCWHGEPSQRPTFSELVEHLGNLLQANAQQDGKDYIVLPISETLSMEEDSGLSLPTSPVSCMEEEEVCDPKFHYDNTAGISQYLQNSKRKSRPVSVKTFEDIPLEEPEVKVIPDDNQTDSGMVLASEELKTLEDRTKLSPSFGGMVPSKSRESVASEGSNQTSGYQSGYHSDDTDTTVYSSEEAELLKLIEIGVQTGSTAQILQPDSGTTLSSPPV
Sequence of c-Kit (P10721 26-976): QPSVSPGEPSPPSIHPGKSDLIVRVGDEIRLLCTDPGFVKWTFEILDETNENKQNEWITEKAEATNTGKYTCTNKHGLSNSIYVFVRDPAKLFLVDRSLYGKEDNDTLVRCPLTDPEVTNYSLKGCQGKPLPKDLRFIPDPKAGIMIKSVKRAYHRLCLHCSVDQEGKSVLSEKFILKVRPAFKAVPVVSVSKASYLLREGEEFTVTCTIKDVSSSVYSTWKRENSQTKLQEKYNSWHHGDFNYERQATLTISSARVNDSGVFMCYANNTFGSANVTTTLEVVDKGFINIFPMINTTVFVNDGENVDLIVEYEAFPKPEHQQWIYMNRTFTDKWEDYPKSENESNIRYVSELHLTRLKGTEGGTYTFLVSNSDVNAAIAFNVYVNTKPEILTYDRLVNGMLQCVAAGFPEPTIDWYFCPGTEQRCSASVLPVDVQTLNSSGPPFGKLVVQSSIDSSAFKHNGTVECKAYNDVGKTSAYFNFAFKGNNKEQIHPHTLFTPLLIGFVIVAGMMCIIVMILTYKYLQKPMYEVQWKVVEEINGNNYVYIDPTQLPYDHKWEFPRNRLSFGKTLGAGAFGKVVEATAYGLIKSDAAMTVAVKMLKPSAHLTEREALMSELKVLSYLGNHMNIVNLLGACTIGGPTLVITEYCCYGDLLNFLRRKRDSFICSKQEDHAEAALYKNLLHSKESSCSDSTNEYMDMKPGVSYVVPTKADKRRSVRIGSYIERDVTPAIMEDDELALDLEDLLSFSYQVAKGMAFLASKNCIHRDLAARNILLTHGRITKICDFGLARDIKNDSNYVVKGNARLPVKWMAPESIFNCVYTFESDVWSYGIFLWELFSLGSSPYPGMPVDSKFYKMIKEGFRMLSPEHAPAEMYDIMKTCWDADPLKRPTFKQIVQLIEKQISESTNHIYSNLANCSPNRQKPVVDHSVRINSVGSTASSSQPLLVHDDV

IC50 (c-Kit): 390 nM
c-Kit AVG % Activity at Specific Concentration (c-Kit; [1]): 0%
c-Kit AVG % Activity at Specific Concentration (c-Kit; [2]): 16%
c-Kit AVG % Activity at Specific Concentration (c-Kit; [3]): 90%
c-Kit AVG % Activity at Specific Concentration (c-Kit; [4]): 102%
c-Kit AVG % Activity at Specific Concentration (c-Kit; [5]): 105%
c-Kit AVG % Activity at Specific Concentration (c-Kit; [6]): 95%
c-Kit AVG % Activity at Specific Concentration (c-Kit; [7]): −1%
c-Kit AVG % Activity at Specific Concentration (c-Kit; [8]): 2%
c-Kit AVG % Activity at Specific Concentration (c-Kit; [9]): 60%
c-Kit AVG % Activity at Specific Concentration (c-Kit; [10]): 100%
c-Kit AVG % Activity at Specific Concentration (c-Kit; [11]): 105%
c-Kit AVG % Activity at Specific Concentration (c-Kit; [12]): 102%
c-Kit Fold (c-Kit): 5.30
IC50 (RET): 870 nM
RET AVG % Activity at Specific Concentration (RET; [1]): 5%
RET AVG % Activity at Specific Concentration (RET; [2]): 49%
RET AVG % Activity at Specific Concentration (RET; [3]): 90%
RET AVG % Activity at Specific Concentration (RET; [4]): 105%
RET AVG % Activity at Specific Concentration (RET; [5]): 104%
RET AVG % Activity at Specific Concentration (RET; [6]): 100%
RET AVG % Activity at Specific Concentration (RET; [7]): 0%
RET AVG % Activity at Specific Concentration (RET; [8]): 21%
RET AVG % Activity at Specific Concentration (RET; [9]): 74%
RET AVG % Activity at Specific Concentration (RET; [10]): 96%
RET AVG % Activity at Specific Concentration (RET; [11]): 101%
RET AVG % Activity at Specific Concentration (RET; [12]): 97%
RET Fold (RET): 20.23
IC50 (VEGFR-2): 300 nM
VEGFR-2 AVG % Activity at Specific Concentration (VEGFR-2; [1]): 1%
VEGFR-2 AVG % Activity at Specific Concentration (VEGFR-2; [2]): 20%
VEGFR-2 AVG % Activity at Specific Concentration (VEGFR-2; [3]): 61%
VEGFR-2 AVG % Activity at Specific Concentration (VEGFR-2; [4]): 77%
VEGFR-2 AVG % Activity at Specific Concentration (VEGFR-2; [5]): 84%
VEGFR-2 AVG % Activity at Specific Concentration (VEGFR-2; [6]): 89%
VEGFR-2 AVG % Activity at Specific Concentration (VEGFR-2; [7]): −1%
VEGFR-2 AVG % Activity at Specific Concentration (VEGFR-2; [8]): 8%
VEGFR-2 AVG % Activity at Specific Concentration (VEGFR-2; [9]): 46%
VEGFR-2 AVG % Activity at Specific Concentration (VEGFR-2; [10]): 71%
VEGFR-2 AVG % Activity at Specific Concentration (VEGFR-2; [11]): 84%
VEGFR-2 AVG % Activity at Specific Concentration (VEGFR-2; [12]): 84%
VEGFR-2 Fold (VEGFR-2): 6.12
Compound: COCCOCCOCCOCCOCCOCCOCCOCCOCCNC(=O)c1c(C)[nH]c(/C=C2\C(=O)Nc3ccc(F)cc32)c1C [mPEG9-semaxanib, (Z)-5-((5-fluoro-2-oxoindolin-3-ylidene)methyl)-2,4-dimethyl-1H-pyrrole-3-mPEG8-amide]

IC50 (c-Kit): 300 nM
c-Kit AVG % Activity at Specific Concentration (c-Kit; [1]): −1%
c-Kit AVG % Activity at Specific Concentration (c-Kit; [2]): 11%
c-Kit AVG % Activity at Specific Concentration (c-Kit; [3]): 75%
c-Kit AVG % Activity at Specific Concentration (c-Kit; [4]): 97%
c-Kit AVG % Activity at Specific Concentration (c-Kit; [5]): 98%
c-Kit AVG % Activity at Specific Concentration (c-Kit; [6]): 94%
c-Kit AVG % Activity at Specific Concentration (c-Kit; [7]): −1%
c-Kit AVG % Activity at Specific Concentration (c-Kit; [8]): 1%
c-Kit AVG % Activity at Specific Concentration (c-Kit; [9]): 49%
c-Kit AVG % Activity at Specific Concentration (c-Kit; [10]): 93%
c-Kit AVG % Activity at Specific Concentration (c-Kit; [11]): 98%
c-Kit AVG % Activity at Specific Concentration (c-Kit; [12]): 94%
c-Kit Fold (c-Kit): 4.10
IC50 (RET): 990 nM
RET AVG % Activity at Specific Concentration (RET; [1]): 5%
RET AVG % Activity at Specific Concentration (RET; [2]): 52%
RET AVG % Activity at Specific Concentration (RET; [3]): 92%
RET AVG % Activity at Specific Concentration (RET; [4]): 100%
RET AVG % Activity at Specific Concentration (RET; [5]): 102%
RET AVG % Activity at Specific Concentration (RET; [6]): 100%
RET AVG % Activity at Specific Concentration (RET; [7]): 0%
RET AVG % Activity at Specific Concentration (RET; [8]): 20%
RET AVG % Activity at Specific Concentration (RET; [9]): 75%
RET AVG % Activity at Specific Concentration (RET; [10]): 94%
RET AVG % Activity at Specific Concentration (RET; [11]): 97%
RET AVG % Activity at Specific Concentration (RET; [12]): 99%
RET Fold (RET): 23.02
IC50 (VEGFR-2): 430 nM
VEGFR-2 AVG % Activity at Specific Concentration (VEGFR-2; [1]): −3%
VEGFR-2 AVG % Activity at Specific Concentration (VEGFR-2; [2]): 24%
VEGFR-2 AVG % Activity at Specific Concentration (VEGFR-2; [3]): 73%
VEGFR-2 AVG % Activity at Specific Concentration (VEGFR-2; [4]): 85%
VEGFR-2 AVG % Activity at Specific Concentration (VEGFR-2; [5]): 86%
VEGFR-2 AVG % Activity at Specific Concentration (VEGFR-2; [6]): 86%
VEGFR-2 AVG % Activity at Specific Concentration (VEGFR-2; [7]): −6%
VEGFR-2 AVG % Activity at Specific Concentration (VEGFR-2; [8]): 2%
VEGFR-2 AVG % Activity at Specific Concentration (VEGFR-2; [9]): 50%
VEGFR-2 AVG % Activity at Specific Concentration (VEGFR-2; [10]): 78%
VEGFR-2 AVG % Activity at Specific Concentration (VEGFR-2; [11]): 82%
VEGFR-2 AVG % Activity at Specific Concentration (VEGFR-2; [12]): 84%
VEGFR-2 Fold (VEGFR-2): 8.78
Compound: COCCOCCOCCOCCOCCOCCOCCOCCNC(=O)c1c(C)[nH]c(/C=C2\C(=O)Nc3ccc(F)cc32)c1C [mPEG8-semaxanib, (Z)-5-((5-fluoro-2-oxoindolin-3-ylidene)methyl)-2,4-dimethyl-1H-pyrrole-3-mPEG8-amide]

Compound: COCCOCCOCCOCCOCCOCCNC(=O)c1c(C)[nH]c(/C=C2\C(=O)Nc3ccc(F)cc32)c1C [mPEG6-semaxanib, (Z)-5-((5-fluoro-2-oxoindolin-3-ylidene)methyl)-2,4-dimethyl-1H-pyrrole-3-mPEG6-amide]
IC50 (c-Kit): 290 nM
c-Kit AVG % Activity at Specific Concentration (c-Kit; [1]): −1%
c-Kit AVG % Activity at Specific Concentration (c-Kit; [2]): 8%
c-Kit AVG % Activity at Specific Concentration (c-Kit; [3]): 79%
c-Kit AVG % Activity at Specific Concentration (c-Kit; [4]): 94%
c-Kit AVG % Activity at Specific Concentration (c-Kit; [5]): 97%
c-Kit AVG % Activity at Specific Concentration (c-Kit; [6]): 91%
c-Kit AVG % Activity at Specific Concentration (c-Kit; [7]): −1%
c-Kit AVG % Activity at Specific Concentration (c-Kit; [8]): 0%
c-Kit AVG % Activity at Specific Concentration (c-Kit; [9]): 44%
c-Kit AVG % Activity at Specific Concentration (c-Kit; [10]): 95%
c-Kit AVG % Activity at Specific Concentration (c-Kit; [11]): 99%
c-Kit AVG % Activity at Specific Concentration (c-Kit; [12]): 87%
c-Kit Fold (c-Kit): 3.90
VEGFR-2 AVG % Activity at Specific Concentration (VEGFR-2): 96% and 93%

Compound: COCCOCCOCCOCCOCCNC(=O)c1c(C)[nH]c(/C=C2\C(=O)Nc3ccc(F)cc32)c1C [mPEG5-semaxanib, (Z)-5-((5-fluoro-2-oxoindolin-3-ylidene)methyl)-2,4-dimethyl-1H-pyrrole-3-mPEG5-amide]
IC50 (c-Kit): 230 nM
c-Kit AVG % Activity at Specific Concentration (c-Kit; [1]): −1%
c-Kit AVG % Activity at Specific Concentration (c-Kit; [2]): 6%
c-Kit AVG % Activity at Specific Concentration (c-Kit; [3]): 76%
c-Kit AVG % Activity at Specific Concentration (c-Kit; [4]): 106%
c-Kit AVG % Activity at Specific Concentration (c-Kit; [5]): 100%
c-Kit AVG % Activity at Specific Concentration (c-Kit; [6]): 90%
c-Kit AVG % Activity at Specific Concentration (c-Kit; [7]): −1%
c-Kit AVG % Activity at Specific Concentration (c-Kit; [8]): 0%
c-Kit AVG % Activity at Specific Concentration (c-Kit; [9]): 37%
c-Kit AVG % Activity at Specific Concentration (c-Kit; [10]): 96%
c-Kit AVG % Activity at Specific Concentration (c-Kit; [11]): 99%
c-Kit AVG % Activity at Specific Concentration (c-Kit; [12]): 99%
c-Kit Fold (c-Kit): 3.10
IC50 (RET): 440 nM
RET AVG % Activity at Specific Concentration (RET; [1]): 0%
RET AVG % Activity at Specific Concentration (RET; [2]): 29%
RET AVG % Activity at Specific Concentration (RET; [3]): 84%
RET AVG % Activity at Specific Concentration (RET; [4]): 99%
RET AVG % Activity at Specific Concentration (RET; [5]): 98%
RET AVG % Activity at Specific Concentration (RET; [6]): 98%
RET AVG % Activity at Specific Concentration (RET; [7]): −1%
RET AVG % Activity at Specific Concentration (RET; [8]): 6%
RET AVG % Activity at Specific Concentration (RET; [9]): 59%
RET AVG % Activity at Specific Concentration (RET; [10]): 95%
RET AVG % Activity at Specific Concentration (RET; [11]): 102%
RET AVG % Activity at Specific Concentration (RET; [12]): 99%
RET Fold (RET): 10.23
